The subject of test [1] is eNOS. The test can be described thus: Human VEGF-induced eNOS activation (phosphorylation at S1177) in HCAE cells, Western blot. It counts as cell-based. The method, then: Human VEGF-induced eNOS activation was determined by Western blotting using an antibody recognizing the activated form of eNOS (phosphorylated at […]) (Cell Signaling, Danvers, Mass.). The membrane was re-probed with anti-GAPDH (glyceraldehyde-3-phosphate dehydrogenase) antibody to show equal protein loading. A bar graph representing densitometric analysis of the activated eNOS Western blot after different treatments is shown in FIG. 8.
On the technique in general: A western blot detects proteins with antibodies after separation by electrophoresis.

Test [2] deals with Human coronary artery endothelial (HCAE) cells. Nature of the test: Endothelial cell invasion assay through Matrigel toward human VEGF. Format: cell-based. To be noted: cells not pretreated, VEGF 10 ng/ml, normoxic or hypoxic. The method, then: Invasion of endothelial cells through a Matrigel matrix is one of many assays used to determine the angiogenic potential of test substances and is thought to be more predictive of angiogenesis in vivo than a simple chemotactic assay through open membrane pores since the cells must degrade and invade the matrix to move into and through the pores in the membrane. […] Human coronary artery endothelial (HCAE) cells (Lonza Walkersville, Inc., Walkersville, Md.) were cultured in the absence (control) or presence of TP508 [50 μg/ml] (TP pret) for 24 hours. Endothelial cell invasion assays were performed using BD BioCoat™ Angiogenesis System (BD Bioscience, Bedford, Mass.) which utilizes FluoroBlok inserts coated with BD Matrigel Matrix (BD Bioscience, Bedford, Mass.). Control or TP508 pretreated cells were added into the top of the inserts. […] After 22 hours of incubation, cells were labeled post-invasion with Calcein AM and measured by detecting the fluorescence of the cells that migrated to the underside of insert membrane.

Test [3] has as its system HLME (Human Lung Microvascular Endothelial Cells). The test can be described thus: Survival of serum-deprived HLME cells. It counts as cell-based.
For test [4], the system named is Human coronary artery endothelial (HCAE) cells. The test can be described thus: Transmembrane cell migration assay toward human VEGF (BD FluoroBlok inserts). Particulars: VEGF 10 ng/ml, hypoxic, 22 h. It counts as cell-based. Here is the method: The ability of a test substance to attract endothelial cells and stimulate their migration through pores in the membrane is one of several tests to determine the angiogenic potential of test substances. […] Prior to migration assay, cells were cultured with or without TP508 to determine the effect of TP508 on endothelial migration. Human coronary artery endothelial (HCAE) cells (Lonza Walkersville, Inc., Walkersville, Md.) were cultured in the absence (control) or presence of TP508 [50 μg/ml] (“TP pret” in FIG. 9A and FIG. 9B) for 24 hours. Transmembrane cell migration assays were performed using BD FluoroBlok inserts (BD Bioscience, Bedford, Mass.) as described by the vendor. Control or TP508 pretreated cells were added into the top of the inserts. […] (V) or medium alone (C) was added to the lower chamber of the insert plate as a chemoattractant. Endothelial migration was performed in normoxic or 1% hypoxic conditions. After a 22-hour incubation, cells were labeled post-migration with Calcein AM and measured by detecting the fluorescence of the cells that migrated to the underside of the insert membrane.

Another test deals with VEGF mRNA. Nature of the test: Real-time PCR of VEGF mRNA in HCMVE cells. It counts as cell-based, human. Particulars: VEGF 10 ng/ml, 24 h. An excerpt: Real-time PCR analyses show changes in steady-state levels of VEGF mRNA after treatment. Data from one experiment performed in triplicate are shown in FIG. 11 as mean±SD. *p<0.01 compared to control (C) cells in normoxia. ^#p<0.01 compared to control (C) cells in hypoxia.

Another test has as its system AC-23. Nature of the test: Binding of biotin-conjugated thrombin to complementary peptide AC-23. An excerpt: Addition of TP508 inhibited specific binding of biotin-labeled thrombin to AC-23. Up to 60% of the binding of thrombin to AC-23 can be inhibited by the addition of TP508. Therefore, both thrombin and TP508 bind to the complementary peptide, AC-23. […] Antibodies to AC-23 and other complementary peptides of thrombin can therefore be used to characterize the thrombin binding site that is activated by TP508, and can be used in the therapeutic and other methods described herein.

In a further test the test system is 23C53. Nature of the test: Binding of biotin-conjugated thrombin to complementary peptide 23C53.
Test [5] deals with eNOS. Nature of the test: Western blot of eNOS expression and phosphorylation (S1177) in HCAE cells. Format: cell-based, human. To be noted: 24 h. The method, then:
(§1) Human coronary artery endothelial cells (HCAE cells, Cambrex Bio Science Walkersville, Walkersville, Md.) were cultured in 5% CO2 at 37° C. in endothelial cell growth medium (EGM) supplemented with 2% fetal bovine serum and Single Quot supplements (Clonetics, San Diego, Calif.; containing epidermal growth factor, hydrocortisone, vascular endothelial growth factor, fibroblast growth factor, insulin growth factor, ascorbic acid, heparin, gentamycin, and amphotericin B). Cells were used between passages 4 and 6 for these studies. HCAE cells were plated at a density of 50,000 cells per well in 12-well plates and were grown for 3 days to reach confluency. Two-day post-confluent cells were treated with TNFα or TP508. Cells were then incubated in normoxic or 1% hypoxic conditions for the indicated times. In some experiments, cells were pretreated with TP508 for 1 h before TNFα stimulation. For RNA extraction, HCAE cells were cultured in 6-well plates.
The cell lysates were subjected to SDS-PAGE in a 10% polyacrylamide gel and transferred to a nitrocellulose membrane (0.2-μm, Invitrogen). After blocking with 5% milk, the membrane was incubated overnight at 4° C. with primary antibodies against phospho-eNOS (Ser 1177) and eNOS (Cell Signaling Technology, Beverly, Mass.), human type-1 arginase (clone 9C5) (Cell Sciences, Canton, Mass.), or GAPDH (Santa Cruz Biotechnology, Santa Cruz, Calif.). […]

Test [6] concerns eNOS mRNA. The test can be described thus: RT-PCR of eNOS mRNA in HCAE cells. Format: cell-based, human. Particulars: 6 h, 25 or 30 cycles. The method, then:
as §1
Total RNA was isolated using an Ambion isolation kit as described by the manufacturer.
RT-PCR for eNOS was performed by Ready-to-Go RT-PCR Beads (Amersham Biosciences) using a two-step protocol. First, cDNA synthesis was achieved by incubating 1 μg total RNA with 1 μg random hexamers (pdN6) as primers and M.-MuLV reverse transcriptase at 42° C. for 60 min. […]

The next test relates to ARG1. Nature of the test: ARG1 expression in HAE cells treated with TNFα. Format: cell-based, human. An excerpt:
Under normoxic conditions, TP508 increased phosphorylated eNOS (p-eNOS) and eNOS in cells with and without TNFα/hypoxic treatment.

The test system of test [7] is eNOS mRNA. The test can be described thus: SYBR Green real-time PCR of eNOS mRNA in HCAE cells. Format: cell-based, human. Particulars: 24 h. Here is the method: as §1
Real time quantitative PCR was used to determine relative expression of eNOS mRNA in endothelial cells treated with TP508 or TNF. […] Quantitative PCR amplifications were done using 2 μl of cDNA in a total volume of 25 μl using SYBR green probes in the SYBR Green PCR Master Mix (ABI). […] The reverse-transcribed cDNA sample cycle threshold values were determined from triplicate samples and normalized to the 18S “housekeeping” gene.

The next test concerns arginase 1 (ARG1). Nature of the test: Western blot of arginase 1 expression in HCAE cells with or without TNFα. It counts as cell-based, human. To be noted: TNFα 24 h, normoxic.

AC-23, sequence (as listed by the source): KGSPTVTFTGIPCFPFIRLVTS
23C53, sequence (as listed by the source): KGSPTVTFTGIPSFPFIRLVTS
Procedure for arginase 1 (ARG1): Human coronary artery endothelial cells (HCAE cells, Cambrex Bio Science Walkersville, Walkersville, Md.) were cultured in 5% CO2 at 37° C. in endothelial cell growth medium (EGM) supplemented with 2% fetal bovine serum and Single Quot supplements (Clonetics, San Diego, Calif.; containing epidermal growth factor, hydrocortisone, vascular endothelial growth factor, fibroblast growth factor, insulin growth factor, ascorbic acid, heparin, gentamycin, and amphotericin B). Cells were used between passages 4 and 6 for these studies. HCAE cells were plated at a density of 50,000 cells per well in 12-well plates and were grown for 3 days to reach confluency. […] Cells were then incubated in normoxic or 1% hypoxic conditions for the indicated times.
The cell lysates were subjected to SDS-PAGE in a 10% polyacrylamide gel and transferred to a nitrocellulose membrane (0.2-μm, Invitrogen). After blocking with 5% milk, the membrane was incubated overnight at 4° C. with primary antibodies against phospho-eNOS (Ser 1177) and eNOS (Cell Signaling Technology, Beverly, Mass.), human type-1 arginase (clone 9C5) (Cell Sciences, Canton, Mass.), or GAPDH (Santa Cruz Biotechnology, Santa Cruz, Calif.). HRP-conjugated anti-mouse or anti-rabbit antibodies (Cell Signaling Technology) were used as secondary antibodies (HRP, horseradish peroxidase). […]

As to VEGF, the “Decrease of VEGF-stimulated eNOS phosphorylation in hypoxic compared to normoxic cells” value in the test with eNOS [1] (hypoxic (1% O2, 24 h) HCAE cells, 1 min VEGF) was about 4 fold. In addition, in the test with eNOS [1] (normoxic HCAE cells, VEGF 50 ng/ml, 1 minute), the “VEGF-induced phosphorylation of eNOS on serine 1177, maximum” value turned out to be 2 fold. Further, the “Invasion of control endothelial cells through Matrigel toward human VEGF” value in test [2] is “not stimulated”. In addition, the Cell survival result in test [3] is “increased survival at lower levels”. For the same substance, the “Endothelial cell migration relative to media control cells” value in [4] was about 150%. In addition, in the test with VEGF mRNA (1% hypoxic), the “VEGF mRNA in hypoxic cells” value was “no effect, or decreased”. For the same substance, in the test with VEGF mRNA (normoxic), the “Decrease of VEGF mRNA expression compared to control cells” value turned out to be 2 fold.
On to thrombin, for which the “Specific binding of thrombin to AC23” value in the test with AC-23 is “bind specifically”. Further, in the test with 23C53, the “Specific binding of thrombin to 23C53” value is “bind specifically”.
For the substance TNFα, the “Reduction of eNOS expression relative to normoxic controls” value with eNOS [5] is given as 65%. Also, in the test on eNOS mRNA [6], the “eNOS mRNA expression (RT-PCR)” value was “drastically decreased”. In addition, the “Expression of ARG1” value in the test with ARG1 was “increasing expression”. Also, in the test with eNOS mRNA [7], the “Decrease of eNOS mRNA level” value was about 80%. Also, the “ARG1 expression relative to control cultures” value in the test on arginase 1 (ARG1) is reported as “significant increase”.

(Values after patent US8334259B2, “Method of treating endothelial dysfunction comprising administration of a thrombin peptide derivative” (The Board of Regents, The University of Texas System, priority 2006, dated 2012).)
